Details of series [1]: method as in earlier work. The settings on record: rodents; tissue-to-plasma distribution ratios (Kp) indicating substantial binding to tissue components; ref 16 (ARV-110), ref 17 (A947); cited from earlier work.
A short description of series [2]: Equilibrium dialysis binding to HEK293 cell homogenate (fraction unbound). It is filed as in vitro ADME. Conditions: human, pH 7.4; fraction unbound in HEK293 cell homogenate, 10 × 10^6 cells/mL, 0.1 μM, 4 h, 37 °C; read-out: fu,hom. As for the experimental part: (§1) The unbound fraction of a selected series of PROTACs was determined through equilibrium dialysis against the cell homogenate. HEK293 cells (ATCC, Manassas, VA) were grown in Dulbecco’s modified Eagle’s medium (DMEM) supplemented with 10% fetal bovine serum (FBS) at 37 °C, 95% relative humidity, and 5% CO2. Cell pellets were harvested using 0.05% trypsin and centrifuged at 260g for 5 min. The cells were resuspended in Dulbecco’s phosphate buffer (DPBS), counted using a Luna II cell counter (Logos Biosystems, Anyang, South Korea) and centrifuged at 260g. The supernatant was discarded, and cell pellets were stored at −80 °C prior to cell homogenate preparation. On the day of the experiment, cell pellets were thawed and resuspended in Hank’s balanced salt solution (HBSS) buffered with 20 mM HEPES (pH 7.4) to a concentration of 10 × 10^6 cells/mL. The cell suspension was homogenized using ultrasonication for 10 s at 20% intensity while kept on ice.
(§2) Compound stability was assessed by adding the compound-spiked cell homogenate to an empty well in the dialysis cassette. At the end of the experiment, these concentrations were compared to identical control samples stored at 4 °C. Mass balance was calculated at the end of each experiment. Further, in all wells, two control compounds (atorvastatin and lopinavir) were included to ensure that the assay plate was functional. All compounds were tested in triplicate in one experiment. Compound 2 was only detected on the cell homogenate side, and thus, the concentration on the buffer side was set to half of the lower limit of quantification to allow calculation of an approximate cell homogenate binding.
(§3) Final samples were matrix matched by taking 1 part sample and 1 part blank cell homogenate or buffer. Proteins were precipitated using 1 part matrix matched sample and 3 parts acetonitrile supplemented with 0.3% formic acid (FA) and 5 nM verapamil (internal standard), and this was diluted 1:1 with Milli-Q prior to centrifugation at 2500g for 20 min. Compound concentrations in the supernatant were quantified using a reversed phase system with a Waters Acquity UPLC HSS T3 column (50 × 2.1 mm, 1.8 μm) in an Aquity UPLC connected to a Xevo TQ-XS mass spectrometer (Waters Corp., Milford, MA). The chromatographic run was done using solvent A (0.1% FA in Milli-Q) and solvent B (0.1% FA in acetonitrile Optima LC/MS grade (Fisher Scientific)) with isocratic conditions between 0 and 0.3 min (99.8% solvent A and 0.2% solvent B), a linear gradient between 0.3 and 1.3 min (from 0.2% to 95% solvent B), isocratic conditions between 1.3 and 1.8 min (95% solvent B), and equilibration back to start conditions between 1.8 and 2.3 min. Mass transitions, cone voltages, and collision energies can be found in Table S4.
(In equilibrium dialysis free small molecules cross a membrane that holds back macromolecules.)

A further series deals with HEK293 cell homogenate. The description is as above. Conditions: equilibrium dialysis, HEK293 cell homogenate, 0.1 μM. It counts as in vitro ADME. As for the experimental part: as §1, §2, §3
The nature of series [3]: Caco-2 A-B passive permeability with preincubation, transporter-inhibited. It is filed as in vitro ADME. Conditions: human, Caco-2, with 50 μM quinidine, 30 μM benzbromarone, 20 μM sulfasalazine; Figure 3A grouping; read-out: Passive Caco-2 cell permeability group (high, moderate or low). As for the experimental part: (§4) Transepithelial transport of the compounds through a Caco-2 monolayer (ATCC, HTB-37) was determined in 14–18 days old monolayers in Costar 24-well cell culture cluster plates (polycarbonate membrane, 0.4 μm pore size). Chamber volumes were 200 and 800 μL on the apical and basolateral sides of the cell monolayers, respectively, and all incubations were performed with prewarmed buffers in an orbital shaking incubator at 480 rpm and 37 °C. Prior to the assay, cells were washed with HBSS supplemented with 25 mM HEPES (HBSS-HEPES), pH 7.4, to remove the culture medium. After 15 min of equilibration, the transepithelial electrical resistance (TEER) was determined to assess acceptance of the cell plates into the assay. A second measurement and a lucifer yellow leakage determination was carried out after performing all the transport experiments to monitor integrity of the cell monolayers throughout the study.
(§5) Before the permeability study, to minimize nonspecific binding of PROTACs to the cells and plates, the cells were preincubated with 10 μM compound solution on the apical (donor) side for 1 h, analogous to Muschong et al. Then, cells were washed twice with HBSS-MES pH 6.5 containing 1% BSA. Then, permeability in the absorptive direction (A–B, apical-to-basolateral) was studied over 120 min at a 10 μM test compound concentration. The compound solutions were freshly prepared from DMSO stock solutions diluted into HBSS supplemented with 25 mM MES, pH 6.5, containing efflux inhibitors (50 μM quinidine, 30 μM benzbromarone, and 20 μM sulfasalazine); the final solvent concentration was always 0.5%.
(§6) Samples from the donor side (10 μL) were drawn immediately after the addition of the test compound and after 45 and 120 min. The donor samples were diluted 1:10 in HBSS. From the receiver compartment, an amount of 100 μL was withdrawn after 45 and 120 min and replaced with fresh HBSS-HEPES, pH 7.4.
(§7) Upon completion of the study, all samples were quenched with 300 μL of acetonitrile and analyzed subsequently using UPLC/MS/MS. The permeability was determined as the appearance rate of the compound on the receiver side, in relation to donor concentration, according to eq 4 Papp=dQ/[(dt)(T)]×A/D where dQ/[(dt)(T)] is the slope of the permeation profile across the Caco-2 cell monolayers, A is the surface area of the Transwell insert (0.33 cm^2), and D is the concentration on the donor side. Following the permeability experiments, recovery from the donor and receiver compartments was calculated using eq 5 recovery(%)(0−120min)=CR120×VR+CR45×0.1+CD45×0.01+CD120×VD/D0×VD×100
Background: Passage across Caco-2 layers is used to estimate intestinal permeability.

Another series concerns Caco-2 monolayer. The description is as above. It counts as in vitro ADME. Conditions: recovery from donor and receiver compartments, 0-120 min. As for the experimental part:
as §4, §5, §6, §7

Molecules are shown by their SMILES. Some results are limits rather than exact numbers.

`N#Cc1ccc(O[C@H]2CC[C@H](NC(=O)c3ccc(N4CCC(CN5CCN(c6cc7c(cc6F)C(=O)N(C6CCC(=O)NC6=O)C7=O)CC5)CC4)nn3)CC2)cc1Cl` (some centres unmarked) [ARV-110]: the tissue distribution result in series [1] is “widespread and extensive tissue distribution”.
Turning to `CCCOc1cccc(Oc2cc3c(cc2NS(=O)(=O)c2cccc(C(=O)NCCOCCOCCOCC(=O)N[C@@H](C(=O)N4C[C@@H](O)C[C@@H]4C(=O)NCc4ccc(-c5scnc5C)cc4)C(C)(C)C)c2)n(C)c(=O)n3C)c1` [Compound 4], the fraction unbound at 4 h, 0.1 μM in series [2] is 0.2. For the same molecule, the “fu,hom mass balance” value in the series on HEK293 cell homogenate is reported as 66%. In series [3], the Papp A→B at 120 min, 10 μM was 0.5 to 10 ×10⁻⁶ cm/s. Besides, the “Papp Recovery (%) (0-120 min)” value in the series with Caco-2 monolayer was 78%.
In the same order, the values of `CC(=O)c1c(C)c2cnc(Nc3ccc(N4CCN(CCOCCOCCOCCNC(=O)COc5cccc6c5C(=O)N([C@H]5CCC(=O)NC5=O)C6=O)CC4)cn3)nc2n(C2CCCC2)c1=O` [Compound 5] are 0.396, 76%, 0.5 to 10 ×10⁻⁶ cm/s and 84%.
In the same order, the values of `Cc1ncsc1-c1ccc(CNC(=O)[C@@H]2C[C@@H](O)CN2C(=O)[C@@H](NC(=O)COCCCCOc2ccc(-c3ccc(N4C(=S)N(c5ccc(C#N)c(C(F)(F)F)c5)C(=O)C4(C)C)cc3)cc2)C(C)(C)C)cc1` [Compound 2] are 0.016, 109%, < 0.5 ×10⁻⁶ cm/s and 87%.
Consider `Cc1ccc(C(=O)NCCCCc2cn(CCCC(=O)NCCCCNc3cccc4c3C(=O)N(C3CCC(=O)NC3=O)C4=O)nn2)cc1-n1c(C)cc(OCc2ccc(F)cc2F)c(Br)c1=O` (centres unmarked) [Compound 3], for which, in series [2], the fraction unbound at 4 h, 0.1 μM is 0.24. Besides, the “fu,hom mass balance” value in the series with HEK293 cell homogenate is 111%. Besides, the Papp A→B at 120 min, 10 μM in series [3] is < 0.5 ×10⁻⁶ cm/s. Also, the “Papp Recovery (%) (0-120 min)” value with Caco-2 monolayer turned out to be 94%.

The values above are taken from PMC12750995, “Conformational Dynamics in the Cell Membrane Interactions of Bispecific Targeted Degrader Therapeutics” (Journal of Medicinal Chemistry, 2025).
